According to patent US20230135894A1, “MK2 DEGRADERS AND USES THEREOF” (Kymera Therapeutics, Inc., priority 2021, published 2023):

Key:
MK2 [1] = target: T1, MK2 (Homo sapiens, UniProt P49137); assay: MK2 degradation in human SW1353 cells (MSD, 24 h); assay type: cell-based; set-up: endogenous in cells; host or cells: SW-1353 (ATCC HTB-94); conditions: for Dmax: read-out: MK2 MSD SW 1353 24 h Dmax %; for DC50: read-out: MK2 MSD SW1353 degradation 24 h GMean External Abs DC50
Summary of the method: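 DC50 derived by 4-parameter logistic fit, with DMSO-treated signal as top and lysis-buffer signal as bottom. Remaining MK2 was measured by MSD electrochemiluminescent sandwich assay in RIPA lysates of human SW1353 cells exposed for 24 h at 37 °C to serially diluted compound in 0.1% DMSO.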

MK2 [2] = target: T1, MK2; assay: MK2 degradation in human THP-1 monocytic cells (MSD, 24 h); assay type: cell-based; set-up: endogenous in cells; conditions: for Dmax: THP-1, THP-1 cells; for DC50: THP-1 cells, read-out: MK2 MSD THP-1 degradation 24 h GMean External Abs DC50
Summary of the method: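 Readout: residual MK2 protein in THP-1 lysates, measured by MSD electrochemiluminescence sandwich assay after 24 h compound exposure (≤10-point serial dilutions, 0.1% DMSO, 37 °C). Curves normalised between lysis-buffer and DMSO-cell signals; DC50 by 4-parameter logistic fit.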

T1 sequence (P49137 whole entry): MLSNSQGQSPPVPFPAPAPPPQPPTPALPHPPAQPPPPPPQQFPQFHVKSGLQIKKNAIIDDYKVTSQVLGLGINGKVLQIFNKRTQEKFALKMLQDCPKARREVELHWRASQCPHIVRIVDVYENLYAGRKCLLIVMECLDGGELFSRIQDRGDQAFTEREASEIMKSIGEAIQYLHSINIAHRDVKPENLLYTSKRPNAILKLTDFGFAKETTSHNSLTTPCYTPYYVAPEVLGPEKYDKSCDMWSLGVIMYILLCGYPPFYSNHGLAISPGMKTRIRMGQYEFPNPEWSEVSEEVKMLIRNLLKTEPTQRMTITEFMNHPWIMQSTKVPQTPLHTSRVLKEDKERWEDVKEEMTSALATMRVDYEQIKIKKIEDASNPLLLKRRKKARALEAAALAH

Row | Dmax (MK2 [1]) [%] | DC50 (MK2 [1]) [nM] | Dmax (MK2 [2]) [%] | DC50 (MK2 [2]) [nM] | Compound
1 | > 75 | < 1 | > 75 | 1 to 10 | C[C@@H]1CNc2c(sc3ccc4nc(N5CCC6(CC5)CN(C5CCN(c7cccc8c7n(C)c(=O)n8C7CCC(=O)NC7=O)CC5)C6)ccc4c23)C(=O)N1 (stereo partly shown) [Compound I-441]
2 | < 50 | > 100 | < 50 | > 100 | C[C@@H]1CNc2c(sc3ccc4nc(N5CCCN(CC6CCN(c7cccc8c7n(C)c(=O)n8C7CCC(=O)NC7=O)CC6)CC5)ccc4c23)C(=O)N1 (stereo partly shown) [Compound I-442]
3 | > 75 | < 1 | > 75 | < 1 | C[C@@H]1CNc2c(sc3ccc4nc(N5CCN(C6CC7(CCN(c8cccc9c8n(C)c(=O)n9C8CCC(=O)NC8=O)CC7)C6)CC5)ccc4c23)C(=O)N1 (stereo partly shown) [Compound I-443]
4 | > 75 | 1 to 10 | 50 to 75 | 1 to 10 | C[C@@H]1CNc2c(sc3ccc4nc(N5CCCN(CCC6CCN(c7ccc8c(c7)n(C)c(=O)n8C7CCC(=O)NC7=O)CC6)CC5)ccc4c23)C(=O)N1 (stereo partly shown) [Compound I-444]
5 | > 75 | < 1 | > 75 | < 1 | C[C@@H]1CNc2c(sc3ccc4nc(N5CCN(CCC6CCN(c7ccc8c(c7)n(C)c(=O)n8C7CCC(=O)NC7=O)CC6)CC5)ccc4c23)C(=O)N1 (stereo partly shown) [Compound I-445]
6 | < 50 | > 100 | < 50 | > 100 | C[C@@H]1CNc2c(sc3ccc4nc(N5CCCN(CC6CCN(c7ccc8c(c7)n(C)c(=O)n8C7CCC(=O)NC7=O)CC6)CC5)ccc4c23)C(=O)N1 (stereo partly shown) [Compound I-446]
7 | 50 to 75 | 1 to 10 | < 50 | > 100 | CCc1cc(-c2cc(-c3cc4c([nH]3)C3(CC3)CNC4=O)ccn2)cc(CC)c1N1CCN(CC2CCN(c3ccc4c(c3)n(C)c(=O)n4C3CCC(=O)NC3=O)CC2)CC1 (stereo not shown) [Compound I-448]
8 | < 50 | > 100 | < 50 | > 100 | CN1CCc2[nH]c(-c3ccnc(-c4ccc(N5CCN(CC6CCN(c7ccc8c(c7)n(C)c(=O)n8C7CCC(=O)NC7=O)CC6)CC5)cc4)c3)cc2C1=O (stereo not shown) [Compound I-450]
9 | > 75 | < 1 | > 75 | < 1 | C[C@@H]1CNc2c(sc3ccc4nc(N5CCN(C6CC7(CCN(c8ccc9c(c8)n(C)c(=O)n9C8CCC(=O)NC8=O)CC7)C6)CC5)ccc4c23)C(=O)N1 (stereo partly shown) [Compound I-451]
10 | 50 to 75 | 1 to 10 | 50 to 75 | 10 to 100 | C[C@@H]1CNc2c(sc3ccc4nc(N5C[C@H]6CC[C@@H]5CN6CC5CCN(c6cccc7c6n(C)c(=O)n7C6CCC(=O)NC6=O)CC5)ccc4c23)C(=O)N1 (stereo partly shown) [Compound I-452]
11 | < 50 | > 100 | < 50 | > 100 | COc1cc(N2CCN(CC3CCN(c4ccc5c(c4)n(C)c(=O)n5C4CCC(=O)NC4=O)CC3)CC2)cc(-n2cc(-c3ccc4c(c3)CCNC4=O)c(N)n2)c1 (stereo not shown) [Compound I-459]

The remaining lines, values behind:

Row | Compound | Dmax (MK2 [1]) [%] | DC50 (MK2 [1]) [nM] | Dmax (MK2 [2]) [%] | DC50 (MK2 [2]) [nM]
12 | CCc1cc(-c2cc(-c3cc4c([nH]3)CCNC4=O)ccn2)cc(CC)c1N1CCN(CC2CCN(c3ccc4c(c3)n(C)c(=O)n4C3CCC(=O)NC3=O)CC2)CC1 (stereo not shown) [Compound I-447] | 50 to 75 | 10 to 100 | < 50 | > 100
13 | Cn1c(=O)n(C2CCC(=O)NC2=O)c2ccc(N3CCC(CN4CCN(c5ccc6occc6c5-c5cc(Nc6ccnc(N)n6)cc6cn[nH]c56)CC4)CC3)cc21 (stereo not shown) [Compound I-453] | < 50 | > 100 | < 50 | > 100
14 | Cn1c(=O)n(C2CCC(=O)NC2=O)c2ccc(N3CCC(CN4CCN(c5ccc6cc(-c7cc(Nc8ccnc(N)n8)cc8cn[nH]c78)oc6c5)CC4)CC3)cc21 (stereo not shown) [Compound I-454] | < 50 | > 100 | < 50 | > 100
15 | Cn1c(=O)n(C2CCC(=O)NC2=O)c2ccc(N3CCC(CN4CCN(c5cc(C#N)cc(-n6cc(-c7ccc8c(c7)CCNC8=O)c(N)n6)c5)CC4)CC3)cc21 (stereo not shown) [Compound I-458] | < 50 | > 100 | < 50 | > 100
16 | COc1cccc(-c2cc(N3CCN(CC4CCN(c5ccc6c(c5)n(C)c(=O)n6C5CCC(=O)NC5=O)CC4)CC3)cc(-n3cc(-c4ccc5c(c4)CCNC5=O)c(N)n3)c2)c1 (stereo not shown) [Compound I-460] | < 50 | > 100 | < 50 | > 100
17 | Cn1c(=O)n(C2CCC(=O)NC2=O)c2ccc(N3CCC(CN4CCN(c5cc(-c6ccc7cc[nH]c7c6)cc(-n6cc(-c7ccc8c(c7)CCNC8=O)c(N)n6)c5)CC4)CC3)cc21 (stereo not shown) [Compound I-461] | > 75 | 1 to 10 | 50 to 75 | 10 to 100
18 | Cc1ccc(NC(=O)c2cccc(C(F)(F)F)c2)cc1N1Cc2cnc(Nc3ccc(N4CCN(CCCCCC(=O)N[C@H](C(=O)N5C[C@H](O)C[C@H]5C(=O)N[C@@H](C)c5ccc(-c6scnc6C)cc5)C(C)(C)C)CC4)nc3)nc2N(C)C1=O [Compound I-462] | > 75 | 10 to 100 | > 75 | 1 to 10
19 | Cc1ccc(NC(=O)c2cccc(C(F)(F)F)c2)cc1N1Cc2cnc(Nc3ccc(N4CCN(CCCCC(=O)N[C@H](C(=O)N5C[C@H](O)C[C@H]5C(=O)N[C@@H](C)c5ccc(-c6scnc6C)cc5)C(C)(C)C)CC4)nc3)nc2N(C)C1=O [Compound I-463] | > 75 | 1 to 10 | > 75 | 1 to 10
